Measured values as given in patent EP4752152A1, “STEROID COMPOUND, AND PREPARATION METHOD THEREFOR AND USE THEREOF” (Cholesgen (Shanghai) Co.Ltd., priority 2023, dated 2025).

Tested on: SREBP pathway
Assay: SREBP luciferase reporter gene system (SRE-luciferase assay)
Format: cell-based, human
Conditions: Huh-7/SRE-luc cells, sterol-deficient medium, 0.01-10 µM
Method in brief: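 Readout was SRE-driven luciferase normalised to GFP fluorescence in lysates of stably transfected Huh-7/SRE-luc hepatoma cells. Compounds (0.01, 0.03, 0.1, 0.3, 1.0, 3.0, 10 µM; DMSO control) were applied for 16 h in sterol-depleted medium with 2 µM lovastatin and 10 µM mevalonate; IC50 from variable-slope fit.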

Row | SMILES | IC50 (16 hours) | IC50 (Homo sapiens, Huh-7, 16 h)
1 | C[C@H](CCCC(O)c1cccc2nn[nH]c12)[C@H]1CC[C@H]2[C@H]3[C@H](CC[C@]12C)[C@@]1(C)CC[C@H](O)[C@H](O)[C@@H]1CC3(F)F (single isomer, unassigned) [Compound 295, (1R,3aS,3bS,5aR,6R,7S,9aR,9bS,11aR)-4,4-difluoro-1-[(2R,6R)-6-hydroxy-6-(3H-benzo[d][1,2,3]triazol-4-yl)hexan-2-yl]-9a,11a-dimethylhexadecahydro-1H-cyclopenta[1,2-a]phenanthrene-6,7-diol or (1R,3aS,3bS,5aR,6R,7S,9aR,9bS,11aR)-4,4-difluoro-1-[(2R,6S)-6-hydroxy-6-(3H-benzo[d][1,2,3]triazol-4-yl)hexan-2-yl]-9a,11a-dimethylhexadecahydro-1H-cyclopenta[1,2-a]phenanthrene-6,7-diol] | 0.275 µM | 
2 | COc1cc(F)cc(OC)c1C(O)CCC[C@@H](C)[C@H]1CC[C@H]2[C@H]3[C@H](CC[C@]12C)[C@@]1(C)CC[C@H](O)[C@H](O)[C@@H]1CC3(F)F (single isomer, unassigned) [Compound 225, (1R,3aS,3bS,5aR,6R,7S,9aR,9bS,11aR)-4,4-difluoro-1-[(2R,6R)-6-(4-fluoro-2,6-dimethoxyphenyl)-6-hydroxyhexan-2-yl]-9a,11a-dimethylhexadecahydro-1H-cyclopenta[1,2-a]phenanthrene-6,7-diol or (1R,3aS,3bS,5aR,6R,7S,9aR,9bS,11aR)-4,4-difluoro-1-[(2R,6S)-6-(4-fluoro-2,6-dimethoxyphenyl)-6-hydroxyhexan-2-yl]-9a,11a-dimethylhexadecahydro-1H-cyclopenta[1,2-a]phenanthrene-6,7-diol] | 0.175 µM | 
3 | COc1cc(F)ccc1[C@@H](O)CCC[C@@H](C)[C@H]1CC[C@H]2C3=C(F)C[C@H]4[C@@H](O)[C@@H](O)CC[C@]4(C)[C@H]3CC[C@]12C [Compound 133, (1R,3aR,5aR,6R,7S,9aR,9bR,11aR)-4-fluoro-1-[(2R,6S)-6-(4-fluoro-2-methoxyphenyl)-6-hydroxyhexan-2-yl]-9a,11a-dimethyl-2,3,3a,5,5a,6,7,8,9,9a,9b,10,11,11a-tetradecahydro-1H-cyclopenta[1,2-a]phenanthrene-6,7-diol] |  | 0.095 µM
4 | C[C@H](CCCC(O)c1cccc2nn[nH]c12)[C@H]1CC[C@H]2[C@H]3[C@H](CC[C@]12C)[C@@]1(C)CC[C@H](O)[C@H](O)[C@@H]1CC3(F)F (single isomer, unassigned) [Compound 294, (1R,3aS,3bS,5aR,6R,7S,9aR,9bS,11aR)-4,4-difluoro-1-[(2R,6S)-6-hydroxy-6-(3H-benzo[d][1,2,3]triazol-4-yl)hexan-2-yl]-9a,11a-dimethylhexadecahydro-1H-cyclopenta[1,2-a]phenanthrene-6,7-diol or (1R,3aS,3bS,5aR,6R,7S,9aR,9bS,11aR)-4,4-difluoro-1-[(2R,6R)-6-hydroxy-6-(3H-benzo[d][1,2,3]triazol-4-yl)hexan-2-yl]-9a,11a-dimethylhexadecahydro-1H-cyclopenta[1,2-a]phenanthrene-6,7-diol] |  | 0.424 µM
5 | C[C@H](CCC[C@H](O)c1cccc2cnn(C)c12)[C@H]1CC[C@H]2C3=C(F)C[C@H]4[C@@H](O)[C@@H](O)CC[C@]4(C)[C@H]3CC[C@]12C (single isomer, unassigned) [Compound 245] |  | 0.159 µM
6 | COc1cc(F)ccc1/C(CCC[C@@H](C)[C@H]1CC[C@H]2[C@H]3[C@H](CC[C@]12C)[C@@]1(C)CC[C@H](O)[C@H](O)[C@@H]1CC3(F)F)=N/O [Compound 157, [(1E,5R)-5-[(1R,3aS,3bS,5aR,6R,7S,9aR,9bS,11aR)-4,4-difluoro-6,7-dihydroxy-9a,11a-dimethylhexadecahydro-1H-cyclopenta[1,2-a]phenanthren-1-yl]-1-(4-fluoro-2-methoxyphenyl)hexylidene]hydroxylamine] |  | 0.053 µM
7 | COc1cccc(F)c1C(CCC[C@@H](C)[C@H]1CC[C@H]2[C@H]3[C@H](CC[C@]12C)[C@@]1(C)CC[C@H](O)[C@H](O)[C@@H]1CC3(F)F)=NO (single isomer, unassigned) [Compound 211, [(1Z,5R)-5-[(1R,3aS,3bS,5aR,6R,7S,9aS,9bS,11aR)-4,4-difluoro-6,7-dihydroxy-9a,9b,11a-trimethylhexadecahydro-1H-cyclopenta[1,2-a]phenanthren-1-yl]-1-(2-fluoro-6-methoxyphenyl)hexylidene]hydroxylamine or [(1E,5R)-5-[(1R,3aS,3bS,5aR,6R,7S,9aR,9bS,11aR)-4,4-difluoro-6,7-dihydroxy-9a,11a-dimethylhexadecahydro-1H-cyclopenta[1,2-a]phenanthren-1-yl]-1-(2-fluoro-6-methoxyphenyl)hexylidene]hydroxylamine] |  | 0.08 µM
8 | COc1ccc(F)c(C(O)CCC[C@@H](C)[C@H]2CC[C@H]3C4=C(F)C[C@H]5[C@@H](O)[C@@H](O)CC[C@]5(C)[C@H]4CC[C@]23C)c1 (stereo partly drawn) [Compound 174, (1R,3aR,5aR,6R,7S,9aR,9bR,11aR)-4-fluoro-1-[(2R)-6-(2-fluoro-5-methoxyphenyl)-6-hydroxyhexan-2-yl]-9a,11a-dimethyl-2,3,3a,5,5a,6,7,8,9,9a,9b,10,11,11a-tetradecahydro-1H-cyclopenta[1,2-a]phenanthrene-6,7-diol] |  | 0.148 µM
9 | COc1cc(C(O)CCC[C@@H](C)[C@H]2CC[C@H]3[C@H]4[C@H](CC[C@]23C)[C@@]2(C)CC[C@H](O)[C@H](O)[C@@H]2CC4(F)F)cc(F)n1 (single isomer, unassigned) [Compound 247, (1R,3aS,3bS,5aR,6R,7S,9aR,9bS,11aR)-4,4-difluoro-1-[(2R,6S)-6-(6-fluoro-2-methoxypyridin-4-yl)-6-hydroxyhexan-2-yl]-9a,11a-dimethylhexadecahydro-1H-cyclopenta[1,2-a]phenanthrene-6,7-diol or (1R,3aS,3bS,5aR,6R,7S,9aR,9bS,11aR)-4,4-difluoro-1-[(2R,6R)-6-(6-fluoro-2-methoxypyridin-4-yl)-6-hydroxyhexan-2-yl]-9a,11a-dimethylhexadecahydro-1H-cyclopenta[1,2-a]phenanthrene-6,7-diol] |  | 0.04 µM
10 | C[C@H](CCC[C@@H](O)c1nn(C)c2ccccc12)[C@H]1CC[C@H]2[C@H]3[C@H](CC[C@]12C)[C@@]1(C)CC[C@H](O)[C@H](O)[C@@H]1CC3(F)F [Compound 324, (1R,3aS,3bS,5aR,6R,7S,9aR,9bS,11aR)-4,4-difluoro-1-[(2R,6R)-6-hydroxy-6-(1-methylindazol-3-yl)hexan-2-yl]-9a,11a-dimethylhexadecahydro-1H-cyclopenta[1,2-a]phenanthrene-6,7-diol] |  | 1.51 µM
11 | C[C@H](CCCC(O)c1cncc2c1cnn2C)[C@H]1CC[C@H]2[C@H]3[C@H](CC[C@]12C)[C@@]1(C)CC[C@H](O)[C@H](O)[C@@H]1CC3(F)F (stereo partly drawn) [Compound 275, (1R,3aS,3bS,5aR,6R,7 S,9aR,9bS,11aR)-4,4-Difluoro-1-[(2R)-6-hydroxy-6-(1-methylpyrazolo[3,4-c]pyridin-4-yl)hexan-2-yl]-9a,11a-dimethylhexadecahyd ro-1H-cyclopenta[1,2-a]phenanthrene-6,7-diol] |  | 0.26 µM
12 | C[C@H](CCCC(O)c1c(F)ccnc1F)[C@H]1CC[C@H]2C3=C(F)C[C@H]4[C@@H](O)[C@@H](O)CC[C@]4(C)[C@H]3CC[C@]12C (stereo partly drawn) [Compound 145, (1R,3aR,5aR,6R,7S,9aR,9bR,11aR)-1-[(2R)-6-(2,4-difluoropyridin-3-yl)-6-hydroxyhexan-2-yl]-4-fluoro-9a,11a-dimethyl-2,3,3a,5,5a,6,7,8,9,9a,9b,10,11,11a-tetradecahydro-1H-cyclopenta[1,2-a]phenanthrene-6,7-diol] |  | 0.35 µM
